Experimental data reported in ChEMBL document CHEMBL1150686, “Three new sesquiterpenes from the red alga Laurencia perforata” (J Nat Prod, 2003).
Calls of active or inactive are those of the source. The calls are words filed in the database; no cut-off is given here.

What was measured:
[1] = target: Human immunodeficiency virus type 1 reverse transcriptase (Human immunodeficiency virus 1) (UniProt Q72547); assay: Inhibition of HIV1 reverse transcriptase
[2] = Inhibition of protein tyrosine kinase

| SMILES | Activity [1] | Activity [2] |
| --- | --- | --- |
| CC1=CC[C@@]2(C)C(=C(C)C(=O)[C@H](O)[C@@H]2C)CC1 | inactive | inactive |
| C=C1[C@@H]2CC[C@]13[C@H](C)C(=O)[C@@H](O)[C@@H](C)[C@]3(C)C2 (relative stereo) | inactive | inactive |
| CC1=CC[C@@]2(C)C(=C(C)C(=O)[C@H](O)[C@@H]2C)[C@H](O)C1 (relative stereo) | inactive | inactive |
